The text below walks through data of patent US11986471B2, “Compounds and methods of use” (Tango Therapeutics, Inc., priority 2018, dated 2024).

Molecules are shown by their SMILES. pIC50: −log10 of the molar value.

Assay [1] addresses T1, PRMT5 (Homo sapiens, UniProt O14744).
T1 construct: purchased Viva (custom protein)
Put plainly: PRMT5 IC50 assay in the presence of MTA as cofactor. The format is biochemical. The note with it: for pIC50: PRMT5, MTA as cofactor; for SAM/MTA Ratio: ratio between Ki in the presence of SAM and Ki in the presence of MTA. The method in brief: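 Potency against PRMT5 is compared across cofactor states, where IC50 equals Ki×1.5 with SAM present and Ki×13.5 with MTA present.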

The test system of a further assay is HAP1 MTAP-deleted. Put plainly: SDMA in-cell western assay, HAP1 MTAP-deleted cell line. The format is cell-based. The note with it: for pIC50: Homo sapiens, HAP1 MTAP-deleted cell line; for MTAP Intact/Deleted Ratio: IC50 ratio HAP1 MTAP-intact / HAP1 MTAP-deleted. In outline: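 Readout is cellular SDMA signal by in-cell western, with IC50 values derived from it. The cells are MTAP-null HAP1, matched to an isogenic MTAP-intact HAP1 line.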

The target of assay [2] is T1, PRMT5. In words: PRMT5 IC50 assay in the presence of SAM as cofactor. The format is biochemical. The method in brief:
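Three cofactor conditions are run: SAM-bound, MTA-bound and cofactor-free enzyme. IC50 is read from each; for the SAM and MTA arms it is divided by 1.5 and 13.5 respectively to give Ki.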

Another assay deals with HAP1 MTAP-intact. Put plainly: SDMA in-cell western assay, HAP1 MTAP-intact cell line. The note with it: Homo sapiens. It counts as cell-based. The method in brief:
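IC50 values come from SDMA in-cell western staining of HAP1 cells. The MTAP-intact line carries endogenous MTAP, while its MTAP-deleted counterpart lacks MTAP entirely. A selectivity ratio of at least 3 fold marks a compound as MTAP-selective.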

For assay [3], the target named is T1, PRMT5. Put plainly: PRMT5 IC50 assay with no cofactor. The format is biochemical. In outline:
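Enzyme: human PRMT5. Conditions: plus SAM, plus MTA, or cofactor-free. Output: IC50 (μM); Ki via IC50/1.5 (SAM) or IC50/13.5 (MTA).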

T1 sequence (O14744 whole entry): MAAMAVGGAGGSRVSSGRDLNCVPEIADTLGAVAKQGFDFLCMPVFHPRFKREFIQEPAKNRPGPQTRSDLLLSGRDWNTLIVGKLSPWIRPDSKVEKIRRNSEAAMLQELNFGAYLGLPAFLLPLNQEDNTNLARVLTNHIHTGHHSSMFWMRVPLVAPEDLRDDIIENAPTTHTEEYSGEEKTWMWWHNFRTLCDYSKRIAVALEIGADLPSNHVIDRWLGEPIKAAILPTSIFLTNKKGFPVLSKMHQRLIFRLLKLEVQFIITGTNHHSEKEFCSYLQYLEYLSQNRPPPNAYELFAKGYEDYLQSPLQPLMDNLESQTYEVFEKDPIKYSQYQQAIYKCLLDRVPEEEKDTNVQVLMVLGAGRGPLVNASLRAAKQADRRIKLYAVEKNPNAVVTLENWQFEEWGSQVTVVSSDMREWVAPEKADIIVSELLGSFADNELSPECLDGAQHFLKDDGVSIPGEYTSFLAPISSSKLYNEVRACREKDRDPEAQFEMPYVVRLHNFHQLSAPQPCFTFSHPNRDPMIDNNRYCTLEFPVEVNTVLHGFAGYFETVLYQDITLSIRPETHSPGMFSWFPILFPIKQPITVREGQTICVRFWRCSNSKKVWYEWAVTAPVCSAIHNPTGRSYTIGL
T1 sequence (Q9BQA1 whole entry partner): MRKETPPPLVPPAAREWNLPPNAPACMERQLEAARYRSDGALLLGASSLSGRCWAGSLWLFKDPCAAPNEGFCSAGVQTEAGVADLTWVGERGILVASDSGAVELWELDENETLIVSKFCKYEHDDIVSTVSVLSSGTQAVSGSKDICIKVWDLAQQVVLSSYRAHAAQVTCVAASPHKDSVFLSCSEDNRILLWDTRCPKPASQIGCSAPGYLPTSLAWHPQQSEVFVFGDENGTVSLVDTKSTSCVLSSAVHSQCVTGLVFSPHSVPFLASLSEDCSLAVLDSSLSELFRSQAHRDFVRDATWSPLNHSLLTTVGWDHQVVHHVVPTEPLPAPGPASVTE

For `Cc1ncoc1COc1ccc2c(c1C)CCN(C[C@@H](O)CNC(=O)c1cc(NC3COC3)nc(N3CCCCC3)n1)C2` [Compound 391, N-[(2S)-2-hydroxy-3-{5-methyl-6-[(4-methyl-1,3-oxazol-5-yl)methoxy]-1,2,3,4-tetrahydroisoquinolin-2-yl}propyl]-6-[(oxetan-3-yl)amino]-2-(piperidin-1-yl)pyrimidine-4-carboxamide], the pIC50 on PRMT5 [1] was 6.30 to 7.30; in the assay with HAP1 MTAP-deleted, > 6.00; on PRMT5 [2] it was 6.30 to 7.30; in the assay with HAP1 MTAP-intact, ≤ 5.00; on PRMT5 [3] (read-out: No Co-factor IC50), ≤ 5.30. Moreover, at PRMT5 [1], the “SAM/MTA Ratio” value was “A (a Ki ratio greater than or equal to 10 fold between the Ki in the presence of SAM and the Ki in the presence of MTA)”. Moreover, the “MTAP Intact/Deleted Ratio” value with HAP1 MTAP-deleted is “A* (an IC50 ratio greater than or equal to 10 fold between the IC50 in the HAP1 MTAP-intact cell line and the HAP1 MTAP-deleted cell line)”.
Turning to `Cc1ncoc1COc1cc(F)c2c(c1C)CCN(C[C@@H](O)CNC(=O)c1ccnc(NC3CCC3)c1)C2` [Compound 619, 2-(cyclobutylamino)-N-[(2S)-3-[8-fluoro-5-methyl-6-[(4-methyloxazol-5-yl)methoxy]-3,4-dihydro-1H-isoquinolin-2-yl]-2-hydroxy-propyl]pyridine-4-carboxamide], the pIC50 at PRMT5 [1] is 6.30 to 7.30; with HAP1 MTAP-deleted it was 5.00 to 6.00; on PRMT5 [2], 6.30 to 7.30; in the assay on HAP1 MTAP-intact, ≤ 5.00; against PRMT5 [3] it was 5.30 to 6.30. Moreover, the “MTAP Intact/Deleted Ratio” value with HAP1 MTAP-deleted is “C* (an IC50 ratio of less than 3 fold between the IC50 in the HAP1 MTAP-intact cell line and the HAP1 MTAP-deleted cell line)”.
As to `Cc1ncoc1COc1ccc2c(c1Cl)CCN(C[C@@H](O)CNC(=O)c1ccnc(NC3CCC3)c1)C2` [Compound 252, (S)—N-(3-(5-chloro-6-((4-methyloxazol-5-yl)methoxy)-3,4-dihydroisoquinolin-2(1H)-yl)-2-hydroxypropyl)-2-(cyclobutylamino)isonicotinamide], the pIC50 at PRMT5 [1] is 6.30 to 7.30; with HAP1 MTAP-deleted, 5.00 to 6.00; on PRMT5 [2] it was 6.30 to 7.30; with HAP1 MTAP-intact, ≤ 5.00; on PRMT5 [3] (read-out: No Co-factor IC50), ≤ 5.30. Further, the “SAM/MTA Ratio” value on PRMT5 [1] was “A (a Ki ratio greater than or equal to 10 fold between the Ki in the presence of SAM and the Ki in the presence of MTA)”. Besides, the “MTAP Intact/Deleted Ratio” value with HAP1 MTAP-deleted was “C* (an IC50 ratio of less than 3 fold between the IC50 in the HAP1 MTAP-intact cell line and the HAP1 MTAP-deleted cell line)”.
As for `Cc1ncoc1COc1ccc2c(c1)CCN(C[C@@H](O)CNC(=O)c1cc(NC3CCC3)nc(N(C)C3CCC3)c1)C2` [Compound 635], the pIC50 is 6.30 to 7.30 at PRMT5 [1]; > 6.00 with HAP1 MTAP-deleted; 6.30 to 7.30 at PRMT5 [2]; 5.00 to 6.00 in the assay on HAP1 MTAP-intact; ≤ 5.30 on PRMT5 [3] (read-out: No Co-factor IC50). The “SAM/MTA Ratio” value at PRMT5 [1] was “A (a Ki ratio greater than or equal to 10 fold between the Ki in the presence of SAM and the Ki in the presence of MTA)”. Further, the “MTAP Intact/Deleted Ratio” value with HAP1 MTAP-deleted was “A* (an IC50 ratio greater than or equal to 10 fold between the IC50 in the HAP1 MTAP-intact cell line and the HAP1 MTAP-deleted cell line)”.
With `CCCN(C)c1nc(NC2COC2)cc(C(=O)NC[C@H](O)CN2CCc3cc(OCc4cnco4)ccc3C2)n1` [Compound 294, (S)—N-(2-hydroxy-3-(6-(oxazol-5-ylmethoxy)-3,4-dihydroisoquinolin-2(1H)-yl)propyl)-2-(methyl(propyl)amino)-6-(oxetan-3-ylamino)pyrimidine-4-carboxamide], the pIC50 at PRMT5 [1] was 6.30 to 7.30; with HAP1 MTAP-deleted it was > 6.00; on PRMT5 [2], 6.30 to 7.30; in the assay with HAP1 MTAP-intact, 5.00 to 6.00; at PRMT5 [3] (read-out: No Co-factor IC50), 5.30 to 6.30. Besides, the “SAM/MTA Ratio” value on PRMT5 [1] was “A (a Ki ratio greater than or equal to 10 fold between the Ki in the presence of SAM and the Ki in the presence of MTA)”. Moreover, in the assay with HAP1 MTAP-deleted, the “MTAP Intact/Deleted Ratio” value is “C* (an IC50 ratio of less than 3 fold between the IC50 in the HAP1 MTAP-intact cell line and the HAP1 MTAP-deleted cell line)”.

In general, pIC50 refers to the IC50 on a negative log10 scale, so that one unit is a factor of ten.
